Laboratory results: US11760775B2, “Steroids and protein-conjugates thereof” (Regeneron Pharmaceuticals, Inc., priority 2016, dated 2023)
Counter-ions that a name gives are not always drawn. Like-named read-outs stand apart in the source and are kept apart here.

How the values were obtained:
[1] = molecular target: Glucocorticoid Receptor (GR) (Homo sapiens (Human), UniProt P04150); test: LanthaScreen TR-FRET GR Competitive Binding Assay (cell free)
[2] = tested on: GR activation in 293/PRLR/GRE-Luc cells (HEK293/9xUAS-Luc2P/pBind-GR/PRLR-HA high cells); test: GR co-activator luciferase reporter cell based assay in 293/PRLR/GRE-Luc cells; set-up: species or system human; conditions: for Emax: HEK293, read-out: Activation (fold activation relative to Budesonide) in HEK293/9xUAS-Luc2P/pBind-GR/PRLR-HA high cells; for HEK293/9xUAS-Luc2P/pBind-GR/PRLR-HA high cells activation relative to Budesonide: fold activation vs Budesonide
Description: Bioassays described herein were used to assess the efficacy of free steroids and anti-PRLR-ncADCs. In one example, the bioassay assessed the activity of steroids, after internalization of a site-specific anti-PRLR-GC steroid ADC into cells, to bind to pBIND-GR and subsequent luciferase reporter activation. […] Then such stable cell line was further transfected with a chimeric receptor consisting of a GR ligand binding domain fused to the yeast Gal4 DNA binding domain (pBind-GR, Promega Cat #E1581), and a Gal4 upstream activator sequence (9×Gal4UAS-Luc2P) that drives luciferase gene expression.
(§1) For this assay, 20,000 cells were seeded in 96-well plates in media containing DMEM supplemented with 10% FBS and pencillin/streptomycin (complete media) and grown overnight at 37° C. in 5% CO2. […] Luciferase activity was determined by addition of OneGlo™ reagent (Promega, Cat #E6130) and relative light units (RLUs) were measured on a Victor luminometer (Perkin Elmer). The EC50 values were determined from a four-parameter logistic equation over a 10 point response curve using GraphPad Prism.
as §1, with “One-Glo™” for “OneGlo™”, “10-point” for “10 point”, “Prism. […] Minimal activation in this assay is defined as less than 10% of the maximal activation measured with the free payload.” for “Prism.”

[3] = Homo sapiens, 72 hours of incubation
[4] = Homo sapiens, HEK293, 72 hours of incubation, read-out: HEK293/9xUAS-Luc2P/pBind-GR/PRLR-HA high cells EC50
[5] = Homo sapiens, HEK293, read-out: HEK293/9xUAS-Luc2P/pBind-GR/PRLR-HA high cells EC50

Sequence of Glucocorticoid Receptor (GR) (P04150 524-758): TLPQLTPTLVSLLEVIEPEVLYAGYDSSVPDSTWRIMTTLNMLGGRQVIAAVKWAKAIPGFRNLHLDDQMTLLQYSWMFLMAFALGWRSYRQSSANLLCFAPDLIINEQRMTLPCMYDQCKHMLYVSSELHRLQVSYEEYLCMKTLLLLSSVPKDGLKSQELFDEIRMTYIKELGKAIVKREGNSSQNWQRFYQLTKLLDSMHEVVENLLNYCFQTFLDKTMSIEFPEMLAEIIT

In the case of CCC[C@@H]1O[C@@H]2C[C@H]3[C@@H]4CCC5=CC(=O)C=C[C@]5(C)[C@H]4[C@@H](O)C[C@]3(C)[C@]2(C(=O)COc2ccc(N)cc2)O1 [11-5 R, (1S,2S,4R,8S,9S,11S,12S,13R)-8-[2-(4-Aminophenoxy)acetyl]-11-hydroxy-9,13-dimethyl-6-propyl-5,7-dioxapentacyclo[10.8.0.0^2,90.0^4,80.0^13,18]icosa-14,17-dien-16-one], the IC50 [1] is reported as 10 to 100 nM, the Emax [2, 3] is reported as greater than 75% and the EC50 [2, 4] is reported as less than 10 nM.

In the case of [2H]c1c([2H])c(OCC(=O)[C@@]23OC(CCC)O[C@@H]2C[C@H]2[C@@H]4C[C@H](F)C5=CC(=O)C=C[C@]5(C)[C@@]4(F)[C@@H](O)C[C@@]23C)c([2H])c([2H])c1N (stereo partly drawn) [Compound 6-ID, (1S,2S,4R,8S,9S,11S,12R,13S,19S)-8-{2-[4-Amino(2,3,5,6-^2H4)phenoxy]acetyl}-12,19-difluoro-11-hydroxy-9,13-dimethyl-6-propyl-5,7-dioxapentacyclo[10.8.0.0^2,9.0^4,8.0^13,18]icosa-14,17-dien-16-one], the IC50 [1] is reported as less than 10 nM, the EC50 [2, 5] is reported as less than 10 nM and the “HEK293/9xUAS-Luc2P/pBind-GR/PRLR-HA high cells activation relative to Budesonide” value [2] is reported as “Full”.

With CCCC1O[C@@H]2C[C@H]3[C@@H]4C[C@H](F)C5=CC(=O)C=C[C@]5(C)[C@@]4(F)[C@@H](O)C[C@]3(C)[C@]2(C(=O)COc2ccc(N)c(OC)c2)O1 (stereo partly drawn) [Compound 6-II, (1S,2S,4R,8S,9S,11S,12R,13S,19S)-8-[2-(4-Amino-3-methoxyphenoxy)acetyl]-12,19-difluoro-11-hydroxy-9,13-dimethyl-6-propyl-5,7-dioxapentacyclo[10.8.0.0^2,90.0^4,80.0^13,18]icosa-14,17-dien-16-one trifluoroacetate] the IC50 [1] was less than 10 nM, the EC50 [2, 5] was less than 10 nM and the “HEK293/9xUAS-Luc2P/pBind-GR/PRLR-HA high cells activation relative to Budesonide” value [2] was “Full”.

In the case of C[C@@H]1C[C@H]2[C@@H]3C[C@H](F)C4=CC(=O)C=C[C@]4(C)[C@@]3(F)[C@@H](O)C[C@]2(C)[C@@]1(O)C(=O)COc1ccc(N)cc1 [Compound 15-5, (1R,2S,8S,10S,11S,13R,14R,155,17S)-14-[2-(4-Aminophenoxy)acetyl]-1,8-difluoro-14,17-dihydroxy-2,13,15-trimethyltetracyclo[8.7.0.0^2,70.0^11,15]heptadeca-3,6-dien-5 one], the IC50 [1] is reported as 10 to 100 nM, the “Activation (fold activation relative to Budesonide) in HEK293/9xUAS-Luc2P/pBind-GR/PRLR-HA high cells” value ([2]; 72 hours of incubation) is reported as “Full activation (Full activation: >75% of fold activation induced by Budesonide)” and the EC50 ([2]; 72 hours of incubation, read-out: HEK293/9xUAS-Luc2P/pBind-GR/PRLR-HA high cells EC50) is reported as 10 to 100 nM.

CCCC1O[C@@H]2C[C@H]3[C@@H]4CCC5=CC(=O)C=C[C@]5(C)[C@H]4[C@@H](O)C[C@]3(C)[C@]2(C(=O)CN)O1 (stereo partly drawn) [11-1 R/S, (1S,2S,4R,8S,9S,11S,12S,13R)-8-(2-Aminoacetyl)-11-hydroxy-9,13-dimethyl-6-propyl-5,7-dioxapentacyclo[10.8.0.0^2,9. 0^4,80.0^13,18]icosa-14,17-dien-16-one] was tested, and the IC50 [1] was 10 to 100 nM, the Emax [2, 3] was greater than 75% and the EC50 [2, 4] was less than 10 nM.

In the case of CCC[C@H]1O[C@@H]2C[C@H]3[C@@H]4CCC5=CC(=O)C=C[C@]5(C)[C@H]4[C@@H](O)C[C@]3(C)[C@]2(C(=O)COc2ccc(N)cc2)O1 [11-5 S, (1S,2S,4R,8S,9S,11S,12S,13R)-8-[2-(4-Aminophenoxy)acetyl]-11-hydroxy-9,13-dimethyl-6-propyl-5,7-dioxapentacyclo[10.8.0.0^2,90.0^4,80.0^13,18]icosa-14,17-dien-16-one], the IC50 [1] is reported as 10 to 100 nM, the Emax [2, 3] is reported as greater than 75% and the EC50 [2, 4] is reported as less than 10 nM.

For C[C@]12C=CC(=O)C=C1CC[C@@H]1[C@@H]2[C@@H](O)C[C@@]2(C)[C@H]1C[C@H]1O[C@@H](c3ccc(N)cc3)O[C@]12C(=O)CO [Compound 7-1R], the GRE-Luc activation ([2]; 293/PRLR/GRE-Luc cells, 72 hours) was “full GRE-Luc activation” and the EC50 ([2]; 293/PRLR/GRE-Luc cells, 72 hours, read-out: EC50 of GRE-Luc activation) was 10 to 100 nM.

Compound C[C@]12C=CC(=O)C=C1CC[C@@H]1[C@@H]2[C@@H](O)C[C@@]2(C)[C@H]1C[C@H]1O[C@@H](c3ccc(N)cc3)O[C@]12C(=O)CO [7-1 R, (1S,2S,4R,6R,8S,9S,11S,12S,13R)-6-(4-Aminophenyl)-11-hydroxy-8-(2-hydroxyacetyl)-9,13-dimethyl-5,7-dioxapentacyclo[10.8.0.0^2,90.0^4,80.0^13,18]icosa-14,17-dien-16-one] has an IC50 [1] of 10 to 100 nM, an Emax [2, 3] greater than 75% and an EC50 [2, 4] of less than 10 nM.

In the case of CCCC1O[C@@H]2C[C@H]3[C@@H]4C[C@H](F)C5=CC(=O)C=C[C@]5(C)[C@@]4(F)[C@@H](O)C[C@]3(C)[C@]2(C(=O)CNc2ccc(N)cc2)O1 (stereo partly drawn) [Compound 5-I, (1S,2S,4R,8S,9S,11S,12R,13S,19S)-8-{2-[(4-Aminophenyl)amino]acetyl}-12,19-difluoro-11-hydroxy-9,13-dimethyl-6-propyl-5,7-dioxapentacyclo[10.8.0.0^2,90.0^4,80.0^13,18]icosa-14,17-dien-16-one Trifluoroacetate], the EC50 [2, 5] is reported as less than 10 nM and the “HEK293/9xUAS-Luc2P/pBind-GR/PRLR-HA high cells activation relative to Budesonide” value [2] is reported as “Full”.

With CC(C)C(=O)OCC(=O)[C@@]12O[C@H](c3ccc(N)cc3)O[C@@H]1C[C@H]1[C@@H]3CCC4=CC(=O)C=C[C@]4(C)[C@H]3[C@@H](O)C[C@@]12C [8-1 R, 2[(1S,2S,4R,8S,9S,11S,12S,13R)-6-(4-Aminophenyl)-11-hydroxy-9,13-dimethyl-16-oxo-5,7-dioxapentacyclo[10.8.0.0^2,90.0^4,80.0^13,18]icosa-14,17-dien-8-yl]-2-oxoethyl 2-methylpropanoate] the “Activation (fold activation relative to Budesonide) in HEK293/9xUAS-Luc2P/pBind-GR/PRLR-HA high cells” value ([2]; 72 hours of incubation) was “full activation” and the EC50 [2, 4] was 10 to 100 nM.

For C[C@@H]1C[C@H]2[C@@H]3CCC4=CC(=O)C=C[C@]4(C)[C@@]3(F)[C@@H](O)C[C@]2(C)[C@@]1(O)C(=O)CO [compound 1c, dexamethasone, reference compound], the EC50 ([2]; 293/PRLR/GRE-Luc cells, 72 hours, ADCs with or without cyclodextrin linkers, read-out: EC50) was 8.4 nM and the “Maximal Activation” value ([2]; 293/PRLR/GRE-Luc cells, 72 hours, relative to free payload) was “Full (Full activation in this assay is defined between 90 and 100% of the maximal activation measured with the free payload)”.

With “(6S,8S,9S,10R,11S,13S,14S,17R)-17-(2-(4-Aminophenoxy)acetyl)-11,17-dihydroxy-6,10,13-trimethyl-6,7,8,9,10,11,12,13,14,15,16,17-dodecahydro-3H-cyclopenta[a]phenanthren-3-one [Compound 6-VI]” the “HEK293/9xUAS-Luc2P/pBind-GR/PRLR-HA high cells activation relative to Budesonide” value [2] was “Full” and the EC50 ([2]; read-out: HEK293/9xUAS-Luc2P/pBind-GR/PRLR-HA high cells EC50) was less than 10 nM.

Work on CC(=O)OCC(=O)[C@@]1(OC(C)=O)[C@@H](C)C[C@H]2[C@@H]3C[C@H](F)C4=CC(=O)C=C[C@]4(C)[C@@]3(F)[C@@H](O)C[C@@]21C [Diflorasone, diflorasone, reference compound] yielded an Emax [2, 3] greater than 75% and an EC50 [2, 4] of less than 10 nM.

CCCC1O[C@@H]2C[C@H]3[C@@H]4C[C@H](F)C5=CC(=O)C=C[C@]5(C)[C@@]4(F)[C@@H](O)C[C@]3(C)[C@]2(C(=O)COc2ccc(N)c(F)c2)O1 (stereo partly drawn) [Compound 6-III, (1S,2S,4R,8S,9S,11S,12R,13S,19S)-8-[2-(4-Amino-3-fluorophenoxy)acetyl]-12,19-difluoro-11-hydroxy-9,13-dimethyl-6-propyl-5,7-dioxapentacyclo[10.8.0.0^2,90.0^4,8.0^13,18]icosa-14,17-dien-16-one] gave an EC50 [2, 5] of less than 10 nM.
